Data as given in the NIST ThermoML archive (doi:10.1021/je200730m).

Conditions: Liquid, Closed cell (Static) method

CCCCCCCCCCCCCC(=O)OCC [ethyl tetradecanoate]
Conditions	vapor or sublimation pressure [kPa]
333.22 K	0.00147
343.19 K	0.00361
353.15 K	0.00775
363.09 K	0.0163
371.72 K	0.0302
382.03 K	0.0572
391.87 K	0.105
401.89 K	0.187
411.93 K	0.322
421.97 K	0.539
432.22 K	0.887
442.39 K	1.394
452.25 K	2.127
462.3 K	3.2

CCCCCCCC(=O)OCC [ethyl octanoate]
Conditions	vapor or sublimation pressure [kPa]
273.26 K	0.00219
283.08 K	0.00627
293.05 K	0.0156
303.09 K	0.035
313.2 K	0.0757
323.31 K	0.152
351.9 K	0.869
362.1 K	1.487
372.06 K	2.432
382.13 K	3.872
392.19 K	5.904
402.13 K	8.723
412.13 K	12.67
422.12 K	18.04
432.22 K	25.22
442.26 K	34.49
452.3 K	46.42

CCCCCCCCCC(=O)OCC [ethyl decanoate]
Conditions	vapor or sublimation pressure [kPa]
303.1 K	0.00446
313.16 K	0.0105
333.23 K	0.0478
343.2 K	0.0952
353.16 K	0.181
363.12 K	0.328
412.15 K	3.65
422.13 K	5.472
432.24 K	8.07
442.23 K	11.55
452.28 K	16.28
462.37 K	22.35

CCCCCCCCCCCC(=O)OCC [ethyl dodecanoate]
Conditions	vapor or sublimation pressure [kPa]
313.1 K	0.00183
351.88 K	0.0346
362.1 K	0.0674
372.12 K	0.124
382.17 K	0.229
392.24 K	0.399
402.2 K	0.669
422.15 K	1.695
432.26 K	2.647
442.27 K	3.986
452.31 K	5.804
462.43 K	8.49

CCCCCC(=O)OCC [ethyl hexanoate]
Conditions	vapor or sublimation pressure [kPa]
253.41 K	0.00344
263.26 K	0.0106
283.06 K	0.0663
293.05 K	0.144
303.03 K	0.291
313.15 K	0.562
323.18 K	1.018
333.11 K	1.781
343.09 K	2.978
351.97 K	4.553
362.1 K	7.184
372.13 K	10.93
382.15 K	16.07
392.23 K	23.19
402.19 K	32.56
412.21 K	44.9
422.19 K	60.62
432.28 K	80.76
442.29 K	105.57
452.34 K	136.73
462.43 K	174.6
